{
  "source": "patent US20200237715A1",
  "about": "“COX-2 Inhibitors for the Treatment of Ocular Disease” (priority 2019, published 2020)",
  "key": {"[1]": {"details": "topical nepafenac, Cmax, cited from earlier work"}, "[2]": {"details": "DEPOT sub-Tenon's sac, steady-state, cited from earlier work"}, "[3]": {"assay": "Dexamethasone periocular DEPOT (sub-Tenon injection), retina-choroid concentrations, literature comparison", "type": "in vivo", "details": "dexamethasone sub-Tenon DEPOT versus SD-8381 DEPOT", "experimental": "For comparison, the concentrations in the retina-choroid for a DEPOT of a similar lipophilic small molecule, dexamethasone, when placed very close to the retina (sub-Tenon injection) were 0.31 and 0.93 μM [Huang Z, Yang W, Zong Y, Qiu S, Chen X, Sun X, Zhou Y, Xie Z, and Gao Q. A study of the dexamethasone sodium phosphate release properties from a periocular capsular drug delivery system. Drug Delivery 2016:23; 839-847]. […] Also, these dexamethasone data are for a situation where drug delivery has been optimized."}, "Plasma protein binding": {"assay": "Plasma protein binding", "type": "in vitro ADME"}, "[4]": {"assay": "Rabbit study: subconjunctival DEPOT of the ethyl ester of SD-8381 in sesame oil, drug concentration in ocular tissues and plasma by LC-MS", "type": "in vivo, DB rabbits", "experimental": "All reagents were obtained from Sigma-Aldrich with the exception that sesame oil was obtained from Sawall, 2965 Oakland Dr, Kalamazoo, Mich. The ethyl ester of SD-8381 was formulated in sesame oil as a saturated solution at room temperature. Saturation was assured by warming under water warm to the touch for 10 minutes and noting that upon returning to room temperature the powder was in equilibrium with what was apparently a crystalline form of the drug in that the small amount of remaining drug was now transparent (for example, the compound had clearly dissolved and crystallized out of solution). The formulation was checked for topical instillation irritancy. Two male DB rabbits were sedated with isoflurane vapors to effect. Eyes were anesthetized with topical proparacaine, the area treated with ophthalmic betadine and rinsed with sterile saline. The test article was injected (0.05 mL) as a subconjunctival DEPOT to two male DB rabbits, OU using a 29 g needle.\nThe rabbits were sacrificed at a 6-days. Samples collected were (bilateral) aqueous humor, iris plus ciliary body, cornea, conjunctiva, sclera, choroid, retina, lens, vitreous humor and plasma which were placed in tared vials and stored at −20° C. prior to analysis. Care was taken to not cross contaminate fields by dissecting high concentration tissues as separately as possible from other tissues.\nThe free acid of SD-8381 was formed enzymatically using ethyl 6,8-dichloro-2-(trifluoromethyl)-2H-chromene-3-carboxylate and porcine esterase (all reagents and chemicals are from Sigma-Aldrich). The reaction was initiated by adding 5 mg of compound in methanol to 8 mg of esterase in 250 μL of 50 mM potassium phosphate pH 8 buffer. The reaction proceeded at 37° C. and was complete after 3 hours. Conversion of the […] to the free acid was monitored using HPLC-UV with 254 nm detection and confirmed by flow injection analysis using a Waters Quattro Micro mass spectrometer in negative ion mode at unit resolution. SD-8381 free acid was purified by HPLC fraction collection using a 4.6×250 mm Agilent Eclipse XDB-C18 column using 0.1% formic acid/H2O/acetonitrile mobiles phases. Fractions containing the free acid were dried in a weighed tube using a SpeedVac concentrator.\nFree acid SD-8381 was reconstituted in methanol to establish w/v concentration standards for LC-MS analysis. Analytical standards were prepares using EDTA mouse plasma from BioVT. A dilution series of free acid SD-8381 in methanol were spiked into mouse plasma and each concentration was combined with 3 volumes of methanol containing 1 μM diclofenac as a surrogate internal standard as no stable-isotope labeled internal standard (SIL-IS) of SD-8381 is currently available. Standards and plasma blanks were vortex mixed and centrifuged at 13K×g for 5 minutes. Supernatant was transferred to glass insert vials and immediately analyzed by LC-MS analysis. Tissue samples were homogenized using a GE Healthcare sample grinding kit #80-6483-37 and 1 volume of DPBS containing 50% methanol. Proteins were precipitated using 2 additional volumes of methanol and vortex mixing for 5 minutes. Samples were centrifuged at 13K×g for 5 minutes. Supernatant was removed and dried in a SpeedVac concentrator under medium heat. Sample was reconstituted using methanol containing 1 uM Diclofenac. Samples were analyzed using a Waters nanoAcquity UPLC in-line with a high-resolution Waters Synapt G2-S mass spectrometer via an electrospray ion source. UPLC separation of used performed using a 0.375 mm×10 cm Waters XBridge C18 3.5 u column and a flow rate of 10 μL per minute. Mobile phases were 0.1% formic acid in water as mobile phase A and 0.1% formic acid in acetonitrile as mobile phase B. Gradient elution was accomplished with 1% B initial sample loading with ramping to 95% B at 3 minutes, holding at 95% B for 5 minutes, and returning to 1% B at 8.1 minutes. Total run time was 12 minutes and 5 μL of sample was injected per analysis. […]"}, "[5]": {"details": "DEPOT, steady-state, 6 days, high value of the same subject dropped"}, "[6]": {"details": "SD-8381 free acid measured, subconjunctival DEPOT 0.05 mL OU of ethyl ester in sesame oil, rabbits sacrificed at 6 days"}},
  "note": "“And” between values parts separate entries of the source, which are not always exact repeats. Identical values can stand only once. Like-named read-outs stand apart in the source and are kept apart here.",
  "data": [
    {"smiles": "Nc1c(CC(=O)O)cccc1C(=O)c1ccccc1", "note": "[Amfenac, 2-amino-3-benzoylbenzeneacetic acid]", "values": [
      {"measurement": "Anterior choroid concentration", "setting": "[1]", "value": "(0.47) μM"},
      {"measurement": "Anterior retina concentration", "setting": "[1]", "value": "(0.011) μM"},
      {"measurement": "Posterior choroid concentration", "setting": "[1]", "value": 0.042, "unit": "µM"},
      {"measurement": "Posterior retina concentration", "setting": "[1]", "value": 0.00077, "unit": "µM"},
      {"measurement": "Anterior choroid concentration", "setting": "[1]; listed as amfenac", "value": 0.468, "unit": "µM"},
      {"measurement": "Anterior retina concentration", "setting": "[1]; listed as amfenac", "value": 0.011, "unit": "µM"},
      {"measurement": "Posterior choroid concentration", "setting": "[1]; listed as amfenac", "value": 0.0418, "unit": "µM"},
      {"measurement": "Posterior retina concentration", "setting": "[1]; listed as amfenac", "value": 0.000765, "unit": "µM"}
    ]},
    {"smiles": "C[C@@H]1C[C@H]2[C@@H]3CCC4=CC(=O)C=C[C@]4(C)[C@@]3(F)[C@@H](O)C[C@]2(C)[C@@]1(O)C(=O)CO", "note": "[Dexamethasone, dexamethasone]", "values": [
      {"measurement": "Choroid concentration", "setting": "[2]", "value": 0.92, "unit": "µM"},
      {"measurement": "Retina concentration", "setting": "[2]", "value": 0.31, "unit": "µM"},
      {"measurement": "Choroid concentration", "setting": "[2]; listed as dexamethasone", "value": 0.93, "unit": "µM"},
      {"measurement": "Retina-choroid concentration compared with SD-8381", "setting": "[3]", "value": "almost two orders of magnitude less"}
    ]},
    {"smiles": "NC(=O)Cc1cccc(C(=O)c2ccccc2)c1N", "note": "[Nepafenac, 2-amino-3-benzoylbenzeneacetamide]", "values": [
      {"measurement": "Anterior choroid concentration", "setting": "[1]", "value": "(0.71) μM"},
      {"measurement": "Anterior retina concentration", "setting": "[1]", "value": "(0.11) μM"},
      {"measurement": "Posterior choroid concentration", "setting": "[1]", "value": 0.055, "unit": "µM"},
      {"measurement": "Posterior retina concentration", "setting": "[1]", "value": 0.0027, "unit": "µM"},
      {"measurement": "Anterior choroid concentration", "setting": "[1]; listed as nepafenac", "value": 0.714, "unit": "µM"},
      {"measurement": "Anterior retina concentration", "setting": "[1]; listed as nepafenac", "value": 0.110, "unit": "µM"},
      {"measurement": "Posterior choroid concentration", "setting": "[1]; listed as nepafenac", "value": 0.0551, "unit": "µM"},
      {"measurement": "Posterior retina concentration", "setting": "[1]; listed as nepafenac", "value": 0.00272, "unit": "µM"}
    ]},
    {"smiles": "O=C(O)C1=Cc2cc(Cl)cc(Cl)c2OC1C(F)(F)F", "note": "(stereo not drawn) [SD-8381, 6.8-Dichloro-2-trifluoromethyl-2H-1-benzopyran-3-carboxylic acid]", "values": [
      {"measurement": "Binding to plasma proteins", "setting": "Plasma protein binding", "value": "highly bound to plasma proteins"},
      {"measurement": "Choroid concentration, mean (n = 4)", "setting": "[4]; DEPOT, steady-state, 6 days", "value": "96 (n = 4) μM"},
      {"measurement": "Retina concentration, mean (n = 4)", "setting": "[4]; DEPOT, steady-state, 6 days", "value": "13 (n = 4) μM"},
      {"measurement": "Choroid concentration, average with high value dropped (n = 3)", "setting": "[4]; [5]", "value": "20.9 μM and 21 (n = 3)* μM"},
      {"measurement": "Retina concentration, average with high value dropped (n = 3)", "setting": "[4]; [5]", "value": "5.17 μM and 5.2 (n = 3)* μM"},
      {"measurement": "Retina-choroid concentration at steady-state compared with nepafenac following topical administration", "setting": "[4]; SD-8381 DEPOT versus literature nepafenac", "value": "approximately two orders of magnitude higher"},
      {"measurement": "Choroid concentration, individual values", "setting": "[4]; [6]", "value": "322 µM and 9.78 µM and 2.43 µM and 50.4 µM"},
      {"measurement": "Retina concentration, individual values", "setting": "[4]; [6]", "value": "36.8 µM and 2.01 µM and 9.14 µM and 4.37 µM"},
      {"measurement": "Plasma concentration relative to ocular tissues (fold less)", "setting": "[4]; plasma versus ocular tissues", "value": "10^2-10^4"}
    ]},
    {"smiles": "CCOC(=O)C1=Cc2cc(Cl)cc(Cl)c2OC1C(F)(F)F", "note": "(stereo not drawn) [ethyl ester of SD-8381, ethyl 6,8-dichloro-2-(trifluoromethyl)-2H-chromene-3-carboxylate]", "values": [
      {"measurement": "Adverse events (excessive scratching, redness, other signs of irritation and pain)", "setting": "[4]; subconjunctival DEPOT 0.05 mL OU, saturated solution in sesame oil, two male DB rabbits", "value": "No apparent adverse events"}
    ]}
  ]
}
